One test addresses GPRC6A (Mus musculus, UniProt Q8K4Z6). Conditions: wild type mice; Aluminum Lactate 0.3 mg/100 ml with Carrageenan 1 g/100 ml vs Carrageenan alone; p<0.001.
For another test, the system named is primary CD14+ monocytes. Kind of test: IL-1β production of monocytes stimulated with increased extracellular Ca2+ plus TLR ligand. The format is cell-based, human. As for the experimental part: FIGS. 3c and 3d show IL-1β release of primary CD14^+ monocytes in response to increasing extracellular calcium concentration alone (c) or to increased [Ca^2+] in combination with LPS (100 ng/ml) (d) after 16 h of stimulation. The bar underneath the x axis represents the physiological range of the extracellular ionized Ca^2+ concentration (1.2 mM).
The following TLR ligands (human TLR1-9 Agonist Kit, InvivoGen) were used at the following concentrations: TLR1/2 agonist—Pam3CSK4 (1 μg/ml), TLR2 agonist—heat-killed preparation of Listeria monocytogenes (10^8 cells/ml), TLR3 agonist—Poly(I:C) (10 μg/ml), TLR4 agonist—E. coli K12 LPS (100 ng/ml), TLR5 agonist—S. typhimurium flagellin (1 μg/ml), TLR6/2 agonist—FSL1 (1 μg/ml), TLR7 agonist—Imiquimod (1 μg/ml), TLR8 agonist—ssRNA40 (1 μg/ml) and TLR9 agonist—CpG ODN2006 (5 μM). […]
In all experiments shown in FIGS. 3 and 4, IL-1β concentrations were determined in the supernatant by ELISA.
Human and murine IL-1β were measured by commercially available enzyme-immunoassay following the manufacturer's protocol. […]
LPS (Escherichia coli 0111:B4 ultrapure, 100 ng/ml, Invivogen) was used at a concentration of 100 ng/ml. […] Final Ca^2+ ion concentrations in the media were measured after anaerobic sampling (sealed blood gas syringes were completely filled under an CO2 atmosphere, and were closed with caps to avoid loss of CO2) on an ABL 730 (Radiometer). […]

Sequence of GPRC6A (Q8K4Z6 21-928): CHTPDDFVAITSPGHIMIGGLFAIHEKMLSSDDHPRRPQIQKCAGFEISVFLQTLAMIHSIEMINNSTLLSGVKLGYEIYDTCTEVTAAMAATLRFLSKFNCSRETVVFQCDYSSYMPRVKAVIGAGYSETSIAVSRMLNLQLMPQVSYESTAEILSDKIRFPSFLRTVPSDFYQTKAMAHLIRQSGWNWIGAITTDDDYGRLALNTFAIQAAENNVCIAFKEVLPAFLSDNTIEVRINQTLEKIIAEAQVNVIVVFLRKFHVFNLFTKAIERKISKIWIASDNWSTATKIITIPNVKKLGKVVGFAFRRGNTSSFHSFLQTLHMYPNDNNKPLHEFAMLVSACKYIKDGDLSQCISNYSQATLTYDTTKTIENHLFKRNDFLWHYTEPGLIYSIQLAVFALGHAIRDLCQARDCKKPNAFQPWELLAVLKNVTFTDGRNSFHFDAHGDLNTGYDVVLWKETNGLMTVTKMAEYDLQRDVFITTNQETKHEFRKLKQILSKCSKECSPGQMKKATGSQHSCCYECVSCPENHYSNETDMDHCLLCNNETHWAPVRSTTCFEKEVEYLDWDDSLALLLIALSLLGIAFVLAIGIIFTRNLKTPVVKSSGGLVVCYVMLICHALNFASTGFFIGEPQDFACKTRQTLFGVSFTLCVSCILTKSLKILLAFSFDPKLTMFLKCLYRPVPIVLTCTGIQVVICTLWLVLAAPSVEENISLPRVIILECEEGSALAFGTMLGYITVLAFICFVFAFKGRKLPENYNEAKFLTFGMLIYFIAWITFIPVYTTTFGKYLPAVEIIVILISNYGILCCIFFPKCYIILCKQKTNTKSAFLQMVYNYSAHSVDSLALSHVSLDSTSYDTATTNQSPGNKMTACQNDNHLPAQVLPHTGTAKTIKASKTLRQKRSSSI

For Aluminum Lactate, at GPRC6A, the footpad swelling entry is given as “amplification of Carrageenan induced footpad swelling”. Regarding “Tenascin: endogenous TLR ligand, extracellular matrix glycoprotein; Tenascin-C from Millipore”, in the test on primary CD14+ monocytes (endogenous TLR ligand in combination with increased extracellular Ca2+ concentrations), the IL-1β production entry is reported as “comparable to the Ca^2+ plus LPS induced levels”. Consider `[Ca+2].[Cl-].[Cl-]` [Ca^2+, CaCl2], for which the “IL-1β production, factor of increase in comparison to endotoxin (LPS) alone” value in the test on primary CD14+ monocytes (extracellular ionized Ca2+ in combination with LPS) came to 20.

These data come from patent US8680259B2, “Method and compositions for the identification of agents that have a potential effect against chronic inflammatory diseases” (Universität Leipzig, priority 2010, dated 2014).
